Test results taken from paper PMC3527451, “A Pilot Randomized, Placebo Controlled, Double Blind Phase I Trial of the Novel SIRT1 Activator SRT2104 in Elderly Volunteers” (PLoS ONE, 2012).
“Also recorded” adds a separate entry of the source.

Experiments:
[1] = Plasma pharmacokinetics of SRT2104, once daily oral dosing for 28 days in elderly volunteers; assay type: in vivo, human; conditions: for AUC(0-∞), Geometric Least Square Mean: Day 1, AUC(0-∞); for AUC(0-t)_D, dose-normalized Geometric Least Square Mean / AUC(0-∞)_D, dose-normalized Geometric Least Square Mean / Cmax_D, dose-normalized Geometric Least Square Mean / AUC(0-τ)_D, dose-normalized Geometric Least Square Mean: normalized to 0.5 g
Excerpt: This was a phase I, single-center, double-blind, randomized, placebo-controlled, parallel-arm study to assess the safety, tolerability, pharmacokinetic and initial pharmacodynamic properties of […] Pharmaceuticals, Cambridge, MA, USA) administered for the first time to male and female elderly volunteers 60 to 80 years of age. Volunteers were enrolled between 01 Oct 2009 and 5 Feb 2010. […] The selection of the doses investigated in this study was based upon safety and pharmacokinetic data obtained from a previous clinical study involving SRT2104 [19]. Suitability of participants was defined on the basis of a medical history, physical examination, vital signs, electrocardiogram and laboratory measurements. Subjects were required to have normal fasting glucose levels (4.4 to 6.0 mmol/L) at screening and a body mass index of at least 18 kg/m^2 and no greater than 30 kg/m^2. […] Subjects were deemed ineligible if they participated in any clinical trial with an investigative medicinal product within the past three months prior to the first dose in the current study, had been exposed to more than three new chemical entities within 12 months of enrollment, or used other concomitant medications and herbal products in the previous 3 months that in the opinion of the investigator could interfere with the study procedures or compromise subject safety. Additional exclusions included: women of childbearing potential and non-sterile men, unless they agreed to use acceptable method of contraception; history of alcoholism or drug abuse (including a positive pre-study drug/alcohol test at screening); use of tobacco or nicotine products; history of complications when donating blood or known relative inaccessibility of veins for venipuncture; donation of blood within three months of enrolment; history of significant drug or other allergies. Participants were asked to maintain their usual level of physical activity for the duration of the study. During the treatment phase of the study (days 1 to 28 inclusive), test material (SRT2104 or placebo) was supplied as 250 mg capsules and was administered at approximately the same time every morning, approximately 15 minutes following consumption of a standardized meal (Ensure Plus®, a high energy, high protein liquid meal replacement product providing approximately 650 kcal with approximately 30% of calories derived from fat). Subjects were not permitted to consume additional calories for at least 1-2 hours after dosing, although water was permitted ad libitum. Subjects were also instructed to refrain from caffeine and alcohol for 24 hours prior to screening and during assessments visits. The test material was administered within the investigation clinical unit on the days when serial pharmacokinetic sampling was performed (days 1-2 and 28-29) and at home on the remaining days (days 3-27). A diary card was provided to volunteers to confirm daily consumption of the standardized meal, as well as time of dose and number of capsules taken. Missing doses were recorded. Pharmacokinetic samples were collected through 24 hours post-dose on the first and last day of the dosing period (immediately prior to dosing and at 15, 30 minutes and 1, 2, 3, 4, 8, 12 and 24 hours post-dose). Blood samples for pharmacokinetic analysis were collected in pre-labelled lithium heparin heparin Vacutainers for pharmacokinetic analysis (∼4 mL per draw). Each sample was separated by centrifugation at 1500×g and 4°C for 10 minutes. Two equal aliquots of plasma were transferred to polypropylene vials labelled identically to the original blood sample and stored at approximately -20°C for subsequent analysis of plasma SRT2104 concentration. The bio-analysis was performed by Simbec Research Ltd, […], South Wales, UK. Pharmacokinetic parameters for SRT2104 were derived from non-compartmental methods using WinNonLin v5.2 (Pharsight Corporation, Mountain View, CA, USA). […]

rats and dogs = tested on: rats and dogs; design: method as in ref 17, 18; SRT2104 Investigator's Brochure; conditions: acute safety pharmacology, doses up to 2.0 g/kg; SRT2104 Investigator's Brochure; cited from earlier work
CYP3A4 = conditions: human liver microsomes; cited from earlier work
CYP1A = tested on: CYP1A; design: method as in ref 17, 18 (a number printed in a supplementary file, which may have a reference list of its own: not looked up in the article's list); conditions: cultured hepatocytes, at the concentrations tested; cited from earlier work
SIRT1 = tested on: SIRT1; design: method as in JC Milne et al, 2007; conditions: lowering of the Km for acetylated protein substrate; ref JC Milne et al, 2007; cited from earlier work
SIRT2 = conditions: SIRT1 activation over SIRT2; ref SRT2104 Investigator's Brochure; cited from earlier work
SIRT3 = conditions: SIRT1 activation over SIRT3; ref SRT2104 Investigator's Brochure; cited from earlier work
[2] = 0.5 or 2.0 g once daily, abstract summary

## Cc1nc(-c2cccnc2)sc1C(=O)Nc1ccccc1-c1cn2c(CN3CCOCC3)csc2n1 [SRT2104]
[1]; 0.5 g/day group
  Tmax (mean peak plasma concentration): 2 to 4 h
  between-subject variability for AUC(0–24), geometric mean CV: 140%
[1]; 0.5 g/day group, after first administration
  t1/2 of one subject: 29.7 h
[1]; 0.5 g/day group, after repeated administrations
  t1/2 of one subject: 28.3 h
[1]; 0.5 g/day, Day 1
  AUC(0-t), Geometric Least Square Mean: 1950.07 ng·h/mL
  Cmax, Geometric Least Square Mean: 326.22 ng/mL
[1]; 0.5 g/day
  AUC(0-∞), Geometric Least Square Mean: 2503.70 ng·h/mL
[1]; 0.5 g/day, Day 1, geometric mean
  AUC0-∞: 1790.8 ng·h/mL
[1]; 0.5 g/day, Day 1, mean
  AUC0-t: 1872.9 ng·h/mL
  CL/F: 594.2 L/h
  Cmax: 343.4 ng/mL
  t1/2: 14.9 h
[1]; 0.5 g/day, Day 1, median
  tmax: 3.0 h
[1]; 0.5 g/day, Day 28
  AUC(0-t), Geometric Least Square Mean: 1610.10 ng·h/mL
  Cmax, Geometric Least Square Mean: 199.12 ng/mL
[1]; 0.5 g/day, Day 28, geometric mean
  AUC0-∞: 2687.8 ng·h/mL
[1]; 0.5 g/day, Day 28, mean
  AUC0-t: 2280.4 ng·h/mL
  CL/F: 566.9 L/h
  Cmax: 373.4 ng/mL
  t1/2: 17.5 h
[1]; 0.5 g/day, Day 28, median
  tmax: 3.0 h
[1]; [2]
  Mean Tmax: 2 to 4 h
  elimination half-life: 15 to 20 h
[1]; 0.5 to 2.0 g/day
  dose proportionality of exposure (Cmax, AUC): less than dose-proportionally; also recorded: less than dose proportional increase in exposure
[1]; 2.0 g/day group
  between-subject variability for AUC(0–24), geometric mean CV: 102%
[1]; 2.0 g/day group, after the first dose
  Tmax (apparent mean rise to peak concentration): 2 to 8 h
[1]; 2.0 g/day, Day 1
  AUC(0-t), Geometric Least Square Mean: 1743.14 ng·h/mL
  Cmax, Geometric Least Square Mean: 301.28 ng/mL
[1]; 2.0 g/day
  AUC(0-∞), Geometric Least Square Mean: 1788.42 ng·h/mL
[1]; 2.0 g/day, Day 1, geometric mean
  AUC0-∞: 2073.5 ng·h/mL
[1]; 2.0 g/day, Day 1, mean
  AUC0-t: 3249.2 ng·h/mL
  CL/F: 1624.4 L/h
  Cmax: 477.6 ng/mL
  t1/2: 15.1 h
[1]; 2.0 g/day, Day 1, median
  tmax: 3.0 h
[1]; 2.0 g/day, Day 28
  AUC(0-t), Geometric Least Square Mean: 3577.50 ng·h/mL
  Cmax, Geometric Least Square Mean: 389.50 ng/mL
[1]; 2.0 g/day, Day 28, geometric mean
  AUC0-∞: 7729.6 ng·h/mL
[1]; 2.0 g/day, Day 28, mean
  AUC0-t: 4797.4 ng·h/mL
  CL/F: 789.6 L/h
  Cmax: 572.4 ng/mL
  t1/2: 21.6 h
[1]; 2.0 g/day, Day 28, median
  tmax: 3.0 h
[1]; 2.0 g/day, repeat administration
  increase in mean AUC(0–24) relative to the first day of dosing: approximately two-fold increases
[1]; Day 1, 0.5 g/day
  AUC(0-t)_D, dose-normalized Geometric Least Square Mean: 1297.86 ng·h/mL
  AUC(0-∞)_D, dose-normalized Geometric Least Square Mean: 1754.57 ng·h/mL
  Cmax_D, dose-normalized Geometric Least Square Mean: 215.74 ng/mL
[1]; Day 1, 2.0 g/day
  AUC(0-t)_D, dose-normalized Geometric Least Square Mean: 516.59 ng·h/mL
  AUC(0-∞)_D, dose-normalized Geometric Least Square Mean: 504.43 ng·h/mL
  Cmax_D, dose-normalized Geometric Least Square Mean: 69.64 ng/mL
[1]; Day 1, dose proportionality
  AUC(0-t)_D, % Ratio (90% C.I.) 2.0 g/0.5 g: 39.80 (14.39–110.07) %
  AUC(0-∞)_D, % Ratio (90% C.I.) 2.0 g/0.5 g: 28.75 (9.56–86.49) %
  Cmax_D, % Ratio (90% C.I.) 2.0 g/0.5 g: 32.28 (10.41–100.15) %
[1]; Day 28, 0.5 g/day
  AUC(0-t)_D, dose-normalized Geometric Least Square Mean: 1548.09 ng·h/mL
  AUC(0-τ)_D, dose-normalized Geometric Least Square Mean: 1548.74 ng·h/mL
  AUC(0-∞)_D, dose-normalized Geometric Least Square Mean: 2636.12 ng·h/mL
  Cmax_D, dose-normalized Geometric Least Square Mean: 206.06 ng/mL
[1]; Day 28, 2.0 g/day
  AUC(0-t)_D, dose-normalized Geometric Least Square Mean: 911.01 ng·h/mL
  AUC(0-τ)_D, dose-normalized Geometric Least Square Mean: 909.85 ng·h/mL
  AUC(0-∞)_D, dose-normalized Geometric Least Square Mean: 1903.42 ng·h/mL
  Cmax_D, dose-normalized Geometric Least Square Mean: 96.83 ng/mL
[1]; Day 28, dose proportionality
  AUC(0-t)_D, % Ratio (90% C.I.) 2.0 g/0.5 g: 58.85 (25.18–137.51) %
  AUC(0-τ)_D, % Ratio (90% C.I.) 2.0 g/0.5 g: 58.75 (25.10–137.52) %
  AUC(0-∞)_D, % Ratio (90% C.I.) 2.0 g/0.5 g: 72.21 (33.02–157.88) %
  Cmax_D, % Ratio (90% C.I.) 2.0 g/0.5 g: 46.99 (15.44–142.99) %
[1]; human, in vivo
  Cmax, AUC(0-τ) and AUC(0–24) exposures in the 2.0 g/day group compared to the 0.5 g/day group: approximately two-fold higher or less
  differences in exposure between men and women: No apparent differences in exposure
[1]; mono-exponential decline, both doses
  apparent half-life: approximately 15 hours
Rats and dogs
  central nervous system, cardiovascular system and pulmonary effects: no central nervous system (CNS), cardiovascular system (CVS) or pulmonary effects; also recorded: not associated with adverse central nervous system, cardiovascular system, or pulmonary effects
CYP3A4
  inhibition of CYP3A4: not an inhibitor; also recorded: does not inhibit
CYP1A
  induction of CYP1A: not a significant inducer
SIRT1
  increase in SIRT1 activity: approximately two-fold increase in activity
SIRT2
  fold selectivity as compared to SIRT2: > 100
SIRT3
  fold selectivity as compared to SIRT3: > 100
